Earlier results on one compound are cited in patent US20140366219A1, “Increasing Soybean Defense Against Pests” (priority 2011, published 2014).

What all share (conditions): esterase activity toward MeSA; cited from earlier work
The target of one data set is T1, NtSABP2 (Nicotiana tabacum, UniProt Q6RYA0).
T1 sequence (Q6RYA0 1-260): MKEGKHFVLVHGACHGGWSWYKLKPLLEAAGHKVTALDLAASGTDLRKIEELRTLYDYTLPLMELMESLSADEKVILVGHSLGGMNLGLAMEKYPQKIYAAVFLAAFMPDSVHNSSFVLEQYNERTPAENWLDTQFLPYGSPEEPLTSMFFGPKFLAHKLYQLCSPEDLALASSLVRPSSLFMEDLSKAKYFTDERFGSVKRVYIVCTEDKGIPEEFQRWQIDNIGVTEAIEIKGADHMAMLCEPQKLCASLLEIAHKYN

The next data set has as its system PtSABP2-2.
Another data set concerns the target T2, AtMES1 (Arabidopsis thaliana, UniProt Q8S8S9).
T2 sequence (Q8S8S9 1-263): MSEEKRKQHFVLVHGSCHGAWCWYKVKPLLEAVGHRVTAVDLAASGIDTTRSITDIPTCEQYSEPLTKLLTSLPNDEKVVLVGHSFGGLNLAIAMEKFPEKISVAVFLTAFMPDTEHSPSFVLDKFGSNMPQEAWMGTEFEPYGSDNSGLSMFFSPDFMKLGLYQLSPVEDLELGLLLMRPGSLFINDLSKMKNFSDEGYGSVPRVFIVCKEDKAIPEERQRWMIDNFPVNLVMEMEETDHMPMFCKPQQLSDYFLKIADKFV

Another data set deals with T3, AtMES9 (Arabidopsis thaliana, UniProt O23171).
T3 sequence (O23171 1-256): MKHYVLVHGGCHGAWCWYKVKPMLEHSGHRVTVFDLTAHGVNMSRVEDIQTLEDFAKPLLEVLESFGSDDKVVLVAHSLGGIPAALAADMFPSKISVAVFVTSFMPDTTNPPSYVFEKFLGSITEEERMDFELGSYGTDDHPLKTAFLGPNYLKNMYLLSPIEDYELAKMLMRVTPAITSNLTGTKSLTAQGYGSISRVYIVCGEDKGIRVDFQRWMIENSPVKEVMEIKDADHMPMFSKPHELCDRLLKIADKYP

A further data set has as its system PtSABP2-1.
The test system of the next data set is StMES1.

By Km is commonly meant the concentration of substrate that gives half-maximal velocity. Take `COC(=O)c1ccccc1O` [MeSA, methyl salicylate]: the Km on NtSABP2 was 8.6 µM; with PtSABP2-2, 24.6 µM; at AtMES1, 57.3 µM; at AtMES9 it was 147 µM; in the data set with PtSABP2-1, 68.2 µM; in the data set on StMES1 it was 57.9 µM.
